{"source": "patent US10010585B2", "about": "“Methods of treating vestibular schwannoma and reducing hearing or neurite loss caused by vestibular schwannoma” (Massachusetts Eye and Ear Infirmary, priority 2014, dated 2018)", "key": {"COX-2": {"tested_on": "COX-2", "conditions": "5 mM, 48 hours, VS culture media", "procedure": "Prostaglandin (PTG) E2 was assayed in the media of VS cultures using the Prostaglandin E2 Parameter Assay Kit (R&D Systems, KGE004B). The media was collected after 48 hours of treatment from non-treated and treated cultured cells. Manufacturer's instructions were closely followed.\n(§1) The cultures were incubated with the drugs for 48 hours. To label proliferating cells, BrdU was added 20 hours before fixation. pH was measured in the media after drug addition to ensure no significant deviations."}, "sporadic VS": {"tested_on": "sporadic VS", "conditions": "retrospective study, serial MRI scans (Kandathil et al., 2014); cited from earlier work"}, "primary VS cells [1]": {"tested_on": "primary VS cells", "assay": "TUNEL cell death assay in primary VS cultures", "format": "cell-based, human", "conditions": "48 hours", "procedure": "Rate of apoptosis in 6 VS cultures was assessed and correlated with tumor growth in vivo and tumor volume. […] Apoptosis was measured using terminal deoxynucleotidyl transferase dUTP nick end labeling (TUNEL, Roche Applied Sciences, NY) following manufacturer's instructions. Briefly, immunofluorescence protocol was followed as described under ‘Immunofluorescence,’ until fixations, then the cells were washed with PBS thrice and incubated in 1% Triton-X for 10 minutes on shaker. The cells were washed with PBS once and incubated in TUNEL mix for 1 hour at 37° C., then for 30 minutes at RT on shaker. The cells were then incubated in rhodamine phalloidin (Life Technologies, NY, 1:40) and Hoechst stain for 20 minutes, washed with PBS thrice and mounted onto slides for imaging. TUNEL and Hoechst stained nuclei were counted in >3 fields and the ratio of TUNEL positive to Hoechst positive nuclei was used to determine apoptosis rate in vitro. A positive control of 10 minutes-DNAse (Roche Applied Sciences, NY) treatment prior to TUNEL labeling was utilized.\nFor siRNA treatment, cultured primary VS cells or HEI-193 cells were placed in antibiotic and serum free media overnight. The next day, the cells were incubated with Life Technologies siRNAs targeting NF-κB genes RELA and NF-κB1, with control cells being treated with vehicle only (Lipofectamine RNAiMax), for 5 days. Some cultures were also incubated with a fluorescent random Oligo (Life Technologies) along with vehicle to assess transfection efficiency. siRNA experiments were performed in antibiotic and serum free media.\nBAY11 or curcumin, diluted in 100% DMSO, were mixed to the accurate concentrations in warmed media and applied to the cultures (with DMSO concentration in media being 1% maximum), alongside a no-treatment control receiving media alone with appropriate corresponding DMSO levels.\nAfter 48 hours of treatment, primary VS and Schwann cultures were fixed for BrdU staining, to visualize proliferation, or TUNEL staining, to visualize cell death.\nAfter 48 hours of treatment with salicylates, primary VS and SC cultures were fixed for BrdU staining, to visualize proliferation, or TUNEL staining, to visualize cell death."}, "primary VS cells [2]": {"tested_on": "primary VS cells", "assay": "BrdU proliferation assay in primary VS cultures", "format": "cell-based, human", "conditions": "48 hours", "procedure": "Proliferation rate of 12 VS cultures was assessed and correlated with the tumor volume in the latest gadolinium enhanced T1-weighted MRI scan prior to surgical resection, and with tumor growth in vivo, measured as changes in the tumor's volume over time calculated from serial MRI scans. Tumor growth was standardized by dividing the growth rate by the initial tumor volume. Separate analyses were performed for solid tumors, which generally account for approximately 96% of VSs (Charabi et al., 1994), versus all studied tumors, which included 4 out of 13 total tumors with a visible cystic component, because cystic components could misrepresent true tumor volume (Charabi et al., 1994). To determine the level of cell proliferation in the cultures, Bromodeoxyuridine (BrdU) was added to the cells at a concentration of 10 μg/ml 20 hours before the cells were fixed. The cells were kept in the dark after the addition of BrdU Immunofluorescence protocol was followed as described under ‘Immunofluorescence,’ and cell and nuclear membranes were permeablized by incubation in 1% Triton-X for 10 minutes and by incubation in 2N Hydrochloric acid for 20 minutes, respectively, after fixation. Primary antibody against BrdU (AbD Serotec, NC, 1:200) and anti-rat IgG (Life Technologies, NY, 1:1000) were used. BrdU- and Hoechst-stained nuclei were counted in 3-5 fields and the ratio of BrdU positive to Hoechst positive nuclei was used to determine the proliferation rate in vitro. […]\n(§2) Cultured human primary VS cells, primary SCs and HEI-193 cells were treated with NF-κB inhibitors BAY11-7082 (BAY11) or curcumin for 48 hours (Santa Cruz Biotechnology). BAY11 or curcumin, diluted in 100% DMSO, were mixed to the accurate concentrations in warmed media and applied to the cultures (with DMSO concentration in media being 1% maximum), alongside a no-treatment control receiving media alone with appropriate corresponding DMSO levels. Experiments were performed in media fortified with antibiotics and serum (same formulation as described in Example 1 for culturing cells).\n(§3) After 48 hours of treatment, primary VS and Schwann cultures were fixed for BrdU staining, to visualize proliferation, or TUNEL staining, to visualize cell death. The same methodology as described in Example 1 was utilized. Cleaved caspase 3 staining, another apoptosis marker to reinforce findings using TUNEL, was conducted using an antibody against cleaved caspase 3 following the ‘immunofluorescence’ protocol outlined in Example 1.\nas §1\n(§4) After 48 hours of treatment with salicylates, primary VS and SC cultures were fixed for BrdU staining, to visualize proliferation, or TUNEL staining, to visualize cell death. The same methodology as described in Example 1 was utilized.\nTo understand cross-talk between HGF and VEGF-A pathway, cultured VS cells were incubated with Life Technologies silencer select siRNAs targeting VEGFA (s461) or MET (s8700). To understand whether HGF signaling contributed to VS proliferation, cultured VS cells were treated with MET inhibitor SU11274 (Sigma-Aldrich, MO, #S9820). Seventy-two hours after siRNA treatment or 12 hours after treatment with SU11274 (2 μM), cells were incubated with 10 μg/mL BrdU (Life Technologies, NY, # B23151) for 20 hours before fixation."}, "primary SCs": {"tested_on": "primary SCs", "assay": "BrdU proliferation assay in primary Schwann cell cultures", "format": "cell-based, human", "conditions": "48 hours", "procedure": "Proliferation rate of 12 VS cultures was assessed and correlated with the tumor volume in the latest gadolinium enhanced T1-weighted MRI scan prior to surgical resection, and with tumor growth in vivo, measured as changes in the tumor's volume over time calculated from serial MRI scans. Tumor growth was standardized by dividing the growth rate by the initial tumor volume. Separate analyses were performed for solid tumors, which generally account for approximately 96% of VSs (Charabi et al., 1994), versus all studied tumors, which included 4 out of 13 total tumors with a visible cystic component, because cystic components could misrepresent true tumor volume (Charabi et al., 1994). To determine the level of cell proliferation in the cultures, Bromodeoxyuridine (BrdU) was added to the cells at a concentration of 10 μg/ml 20 hours before the cells were fixed. The cells were kept in the dark after the addition of BrdU Immunofluorescence protocol was followed as described under ‘Immunofluorescence,’ and cell and nuclear membranes were permeablized by incubation in 1% Triton-X for 10 minutes and by incubation in 2N Hydrochloric acid for 20 minutes, respectively, after fixation. Primary antibody against BrdU (AbD Serotec, NC, 1:200) and anti-rat IgG (Life Technologies, NY, 1:1000) were used. BrdU- and Hoechst-stained nuclei were counted in 3-5 fields and the ratio of BrdU positive to Hoechst positive nuclei was used to determine the proliferation rate in vitro.\nas §2, §3, §1, §4"}, "[3]": {"tested_on": "cochlear explant cultures (hair cells and neurites)", "assay": "Murine cochlear explant culture, hair cell, neurite and fiber damage counts", "format": "cell-based, CBA/CaJ mice", "conditions": "recombinant human protein 5 μg/mL, 48 hours; for severity of fiber disorganization / damage: scale 0 to 2", "source_text": "To develop an animal model to study hearing loss due to VS, cochlear explant cultures were established from postnatal CBA/CaJ mice aged P3-P5 (Jackson Laboratory, ME). Briefly, after decapitating the mouse, temporal bones were dissected from the skull in Hank's Balanced Salt Solution (Life Technologies, NY). The otic capsule encasing the cochlea was dissected out from each temporal bone. The otic capsule was carefully stripped away and the spiral ligament was peeled away from the entire cochlea, starting from the base. The basal turn of cochlea was then isolated using the dissecting knife (Fine Science Tools, CA), discarding the apical turn hook region. The tectorial membrane and the Reissner's membrane were removed, leaving the organ of Corti intact with the spiral ganglion neuron region. This explant was cultured onto a 10 mm glass coverslip coated with CellTak (BD Biosciences, CA, #354241) in a 35 mm culture dish with 4 wells. Cells were cultured in 98% DMEM, 1% ampicillin and 1% N2 supplement.\nTo assess FGF2's otoprotective effect, cochlear explant cultures were treated with recombinant human FGF2±gentamicin. After culturing the explants overnight, media fortified with FGF2 (100 ng/mL) was applied. Twenty-four hours later media fortified with gentamicin (1 mM) and FGF2 (100 ng/mL) was applied. […] Cochlear explants were fixed after an additional 24 hours of treatment, with total time being 48 hours.\nAfter treatment, the explants were fixed and stained with antibodies against myosin 7A (Myo7A, Proteus Biosciences, CA) and β-tubulin (Tuj1, Covance, MA) to identify hair cells (HCs) and neurons, respectively. The same immunofluorescence protocol as described in Example 1 was used, with the exceptions of omission of […] HCl incubation, usage of 5% NHS with 1% Triton-X for blocking solution and 1% NHS with 0.4% Triton-X solution for primary antibody incubation at room temperature (RT). Secondary antibodies (Alexa Flour 555 anti-mouse and Alexa Four 488 anti-rabbit) were purchased from Life Technologies. Cochlear explants were imaged using a Leica TCS SP5 Confocal microscope. Zoomed-in pictures for the region of organ of Corti, including neurites, were merged in a z-stack to obtain a z-axis projection image in the Leica software. The number of hair cells (HCs) and neurites were manually counted per 100 μm length along the cochlea, with 1-2 samplings per specimen.\nThe same general methodology for murine cochlear explant cultures as described in Example 5 was utilized. Cochlear explant cultures were established from P2-P3 mice. Importantly, instead of only culturing the basal turn, the apical turn was also isolated, providing two pieces per cochlea with a greater frequency range. After approximately 12 hours, the cochlear explant cultures were treated for 48 hours with tumor secretions diluted to half their concentration. The formulation was 46.5% tumor-conditioned DMEM, 46.5% plain DMEM, 5% FBS, 1% ampicillin and 1% N2 supplement. Cochlear explants were treated with control media in parallel, being 46.5% DMEM incubated without tumor, 46.5% plain DMEM, 5% FBS, 1% ampicillin and 1% N2 supplement. All reagents were purchased from Life Technologies, NY. Osmolality in the solutions was measured in samples using a vapor-pressure osmometer (standardized with 290 mOsm/kg of 0.1567M sodium chloride solution) before applying them onto cochlear explants. Extra formulation for each VS secretion was made to be tested on Milliplex arrays and ELISA. Milliplex array, containing FGF2, VEGF-A and HGF beads (Millipore) and human TNFα ELISA (R&D Systems) were conducted as directed by the manufacturer on VS secretions prior to being applied onto the cochlear explant cultures.\nCochlear explants were fixed 48 hours after treatment and the same methodology for VS secretion application as described in Example 5 was utilized. […]"}, "HGF": {"tested_on": "HGF", "assay": "Mouse HGF ELISA on cochlear explants", "format": "cell-based", "conditions": "recombinant human protein 5 μg/mL, 48 hours; control 48.1±17.0", "procedure": "Recombinant human VEGF-A (R&D Systems), diluted in culture media to a 5 μg/mL concentration, was applied to cochlear explants for 48 hours. The explants were fixed and the same protocol as outlined previously was followed (Example 6). […] Plain media with neutralization VEGF-A antibody and VS secretions incubated with only goat IgGs (R&D Systems, MN) were prepared simultaneously as controls. Success of VEGF-A neutralization was confirmed using ELISA.\nHuman VEGF-A ELISA and mouse HGF ELISA kits were purchased from R&D systems and manufacturer's protocols were followed."}}, "note": "Values joined by “and” are separate entries in the source; they are usually repeats but may differ in a detail not shown here. Identical values can stand only once."}
{"compound": "CC(=O)Oc1ccccc1C(=O)O", "note": "[aspirin]", "values": [{"measurement": "secreted PTG levels, of NT cells", "setting": "COX-2", "value": 3.1, "unit": "%"}, {"measurement": "probability of VS growth in comparison to VS patients not taking aspirin", "setting": "sporadic VS", "value": "approximately half"}, {"measurement": "cell death rate", "setting": "primary VS cells [1]; 1 mM", "value": "0.6±0.3", "unit": "%"}, {"measurement": "cell death rate", "setting": "primary VS cells [1]; 5 mM", "value": "2.8±2.2", "unit": "%"}, {"measurement": "proliferation, of the NT cells", "setting": "primary VS cells [2]; 1 mM", "value": "129.6±26.2", "unit": "%"}, {"measurement": "proliferation, of the NT cells", "setting": "primary VS cells [2]; 5 mM", "value": "19% and 19.3±5.5%"}, {"measurement": "normalized proliferation rate, of the NT cells", "setting": "primary SCs; 1 mM", "value": "124.4±72.9", "unit": "%"}, {"measurement": "proliferation, of the NT cells", "setting": "primary SCs; 5 mM", "value": "198.1±141.3", "unit": "%"}]}
{"compound": "TNFα", "values": [{"measurement": "number of IHCs per 100 μm length", "setting": "[3]; apical turn", "value": "13.2±1.0", "unit": "per 100 μm"}, {"measurement": "number of OHCs", "setting": "[3]; apical turn", "value": "39.1±2.2", "unit": "per 100 μm"}, {"measurement": "number of neurites", "setting": "[3]; apical turn", "value": "14.3±2.9", "unit": "per 100 μm"}, {"measurement": "severity of fiber disorganization / damage", "setting": "[3]; apical turn", "value": "0.2±0.5"}, {"measurement": "number of IHCs per 100 μm length", "setting": "[3]; basal turn", "value": "12.1±2.8", "unit": "per 100 μm"}, {"measurement": "number of OHCs", "setting": "[3]; basal turn", "value": "31.8±14.9", "unit": "per 100 μm"}, {"measurement": "number of neurites", "setting": "[3]; basal turn", "value": "11.3±2.4", "unit": "per 100 μm"}, {"measurement": "severity of fiber disorganization / damage", "setting": "[3]; basal turn", "value": "0.8±0.4"}, {"measurement": "secreted HGF levels in cochlear explants", "setting": "HGF", "value": "did not lead to changes"}]}
